Where a name gives a salt, the structure may show the parent alone.
Tested on: tonic extensor seizures elicited by maximal electroshock
Assay: electroshock induced convulsion inhibition assay (E.S.)
Assay type: in vivo, Cox standard strain albino male mice
Details: Mus musculus; oral dose (gavage), mice, 0.1 second 50 milliampere corneal electroshock; at the time after dosing providing an optimal response
Text: The compounds of Formula I are anticonvulsant agents with a high therpeutic ratio and long half-life and are therefore useful in the treatment and prevention of convulsions in mammals. […] The compounds are effective against tonic extensor seizures elicited by maximal electroshock and should therefore be useful for treating generalized tonic-clonic ("grand mal"), cortical focal, complex partial (temporal lobe epilepsy), simple partial (focal moor), and post-traumatic seizures in humans. […] In the electroshock induced convulsion inhibition assay (E.S.), the compound to be tested was suspended in acacia and administered by gavage to each of ten Cox standard strain albino male mice (18-24 g) at the dose level being investigated. […] The animals were examined and evaluated immediately after the electroshock for the occurrence of clonic, flexor tonic, or extensor tonic convulsions, or death and the ED50 was determined for each compound as the dose which inhibited the occurrence of extensor tonic convulsions in one half of the animals immediately after the electroshock. For comparison, 18 milliamperes was usually sufficient to produce extensor tonic convulsions in about half of the control animals; at 50 milliamperes, almost all control animals (receiving vehicle only) […]. The test results summarized in Table I are reported as the ED50 values at the time interval found to provide an optimal response after dosing.

Which ED50 does the source give for `Cc1cc(C(=O)NC(C)c2ccccc2)ccc1N` (racemic) [Example 12, (R,S)-4-amino-3-methyl-N-(1-phenylethyl)benzamide hydrochloride] here?
The ED50 was 20 mg/kg.

Which ED50 does the source give for `Cc1cc(C(=O)NC(C)c2ccccc2)cc(C)c1N` (racemic) [Example 22, (R,S)-4-amino-3,5-dimethyl-N-(1-phenylethyl)benzamide] here?
The ED50 was 26.7 mg/kg.

Which ED50 does the source give for `Cc1ccccc1CNC(=O)c1cc(C)c(N)c(C)c1` [Example 13, 4-Amino-3,5-dimethyl-N-[(2-methylphenyl)methyl]benzamide] here?
Its ED50 is 20 mg/kg.

For `Cc1cc(C(=O)Nc2c(C)cccc2C)ccc1N` [Example 14, 4-Amino-N-(2,6-dimethylphenyl)-3-methylbenzamide], which ED50 is on record?
Its ED50 is 3.8 mg/kg.

With `Cc1cc(C(=O)Nc2c(C)cccc2C)cc(C)c1N` [Example 15, 4-Amino-N-(2,6-dimethylphenyl)-3,5-dimethylbenzamide] as the molecule, how does the ED50 read?
Its ED50 is 5.6 mg/kg.

With `Cc1cc(C(=O)Nc2ccccc2C)ccc1N` [Example 16, 4-Amino-3-methyl-N-(2-methylphenyl)benzamide] as the molecule, how does the ED50 read?
The ED50 was 5.4 mg/kg.

With `Cc1cc(C(=O)NCc2ccccc2)cc(C)c1N` [Example 17, 4-Amino-3,5-dimethyl-N-benzylbenzamide] as the molecule, how does the ED50 read?
Its ED50 is 75 mg/kg.

For `Cc1cc(C(=O)NCc2ccccc2C)ccc1N` [Example 18, 4-Amino-3-methyl-N-(2-methylbenzyl)benzamide], which ED50 is on record?
The ED50 was 16.3 mg/kg.

For `Cc1cc(C(=O)NCc2ccccc2)ccc1N.Cl` [Example 19, 4-Amino-3-methyl-N-benzylbenzamide hydrochloride], which ED50 is on record?
The ED50 was 9.6 mg/kg.

With `Cc1cc(C(=O)N[C@H](C)c2ccccc2)cc(C)c1N` [Example 20, (R)-4-amino-3,5-dimethyl-N-(1-phenylethyl)benzamide] as the molecule, how does the ED50 read?
Its ED50 is 46.8 mg/kg.

With `Cc1cc(C(=O)N[C@@H](C)c2ccccc2)cc(C)c1N` [Example 21, (S)-4-amino-3,5-dimethyl-N-(1-phenylethyl)benzamide] as the molecule, how does the ED50 read?
Its ED50 is 60.5 mg/kg.

Tested on: seizures
Assay: not given
Details: man; cited from earlier work

For `O=C1NC(=O)C(c2ccccc2)(c2ccccc2)N1` [phenytoin], which “plasma level at which seizures are controlled” value is on record?
Its value is 10 µg/mL.

Source: patent US4684748A, “Anticonvulsant agents” (Eli Lilly and Company, priority 1985, dated 1987)
